Columns and labels:
Assay type in all cases: in vivo
Conditions in all cases: 1000 g/h, evaluated after 13 days, five point scale
[1] = tested on: Ipomoea hederacea (IPOHE); experiment: Post-emergence glasshouse herbicide test, Ipomoea hederacea
Procedure: (§1) Seeds of a variety of test species are sown in standard soil in pots (Lolium perenne (LOLPE), Solanum nigrum (SOLNI), Amaranthus retoflexus (AMARE), Setaria faberi (SETFA), Echinochloa crus-galli (ECHCG), Ipomoea hederacea (IPOHE)). After cultivation for one day (pre-emergence) or after 8 days cultivation (post-emergence) under controlled conditions in a glasshouse (at 24/16° C., day/night; 14 hours light; 65% humidity), the plants are sprayed with an aqueous spray solution derived from the formulation of the technical active ingredient in acetone/water (50:50) solution containing 0.5% Tween 20 (polyoxyethelyene sorbitan monolaurate, CAS RN 9005-64-5). […] The test plants are then grown in a glasshouse under controlled conditions in a glasshouse (at 24/16° C., day/night; 14 hours light; 65% humidity) and watered twice daily. After 13 days for pre and post-emergence, the test is evaluated for the percentage damage caused to the plant. The biological activities are shown in the following table on a five point scale (5=80-100%; 4=60-79%; 3=40-59%; 2=20-39%; 1=0-19%).

[2] = tested on: Lolium perenne (LOLPE); experiment: Pre-emergence glasshouse herbicide test, Lolium perenne
Procedure: as §1

[3] = tested on: Amaranthus retoflexus (AMARE); experiment: Post-emergence glasshouse herbicide test, Amaranthus retoflexus
Procedure: as §1

[4] = tested on: Setaria faberi (SETFA); experiment: Post-emergence glasshouse herbicide test, Setaria faberi
Procedure: as §1

[5] = tested on: Echinochloa crus-galli (ECHCG); experiment: Post-emergence glasshouse herbicide test, Echinochloa crus-galli
Procedure: as §1

[6] = tested on: Setaria faberi (SETFA); experiment: Pre-emergence glasshouse herbicide test, Setaria faberi
Procedure: as §1

[7] = tested on: Solanum nigrum (SOLNI); experiment: Post-emergence glasshouse herbicide test, Solanum nigrum
Procedure: (§2) Seeds of a variety of test species are sown in standard soil in pots (Lolium perenne (LOLPE), Solanum nigrum (SOLNI), Amaranthus retoflexus (AMARE), Setaria faberi (SETFA), Echinochloa crus-galli (ECHCG), Ipomoea hederacea (IPOHE)). After cultivation for one day (pre-emergence) or after 8 days cultivation (post-emergence) under controlled conditions in a glasshouse (at 24/16° C., day/night; 14 hours light; 65% humidity), the plants are sprayed with an aqueous spray solution derived from the formulation of the technical active ingredient in acetone/water (50:50) solution containing 0.5% Tween 20 (polyoxyethelyene sorbitan monolaurate, CAS RN 9005-64-5). Compounds are applied at 1000 g/h. The test plants are then grown in a glasshouse under controlled conditions in a glasshouse (at 24/16° C., day/night; 14 hours light; 65% humidity) and watered twice daily. After 13 days for pre and post-emergence, the test is evaluated for the percentage damage caused to the plant. The biological activities are shown in the following table on a five point scale (5=80-100%; 4=60-79%; 3=40-59%; 2=20-39%; 1=0-19%).

[8] = tested on: Lolium perenne (LOLPE); experiment: Post-emergence glasshouse herbicide test, Lolium perenne
Procedure: as §1

[9] = tested on: Solanum nigrum (SOLNI); experiment: Pre-emergence glasshouse herbicide test, Solanum nigrum
Procedure: as §2

[10] = tested on: Echinochloa crus-galli (ECHCG); experiment: Pre-emergence glasshouse herbicide test, Echinochloa crus-galli
Procedure: as §1

[11] = tested on: Ipomoea hederacea (IPOHE); experiment: Pre-emergence glasshouse herbicide test, Ipomoea hederacea
Procedure: as §1

[12] = tested on: Amaranthus retoflexus (AMARE); experiment: Pre-emergence glasshouse herbicide test, Amaranthus retoflexus
Procedure: as §1

Structure (SMILES)	percentage damage caused to the plant, POST Application IPOHE [1]	percentage damage caused to the plant, PRE Application LOLPE [2]	percentage damage caused to the plant, POST Application AMARE [3]	percentage damage caused to the plant, POST Application SETFA [4]	percentage damage caused to the plant, POST Application ECHCG [5]	percentage damage caused to the plant, PRE Application SETFA [6]	percentage damage caused to the plant, POST Application SOLNI [7]	percentage damage caused to the plant, POST Application LOLPE [8]	percentage damage caused to the plant, PRE Application SOLNI [9]	percentage damage caused to the plant, PRE Application ECHCG [10]	percentage damage caused to the plant, PRE Application IPOHE [11]	percentage damage caused to the plant, PRE Application AMARE [12]
CCCn1nnnc1NC(=O)c1nn2cnn(-c3ccccc3C)c2nc1=O [Compound 1.028]	5 (5=80-100%)	5 (5=80-100%)	5 (5=80-100%)	5 (5=80-100%)	5 (5=80-100%)	5 (5=80-100%)	5 (5=80-100%)	5 (5=80-100%)	5 (5=80-100%)	5 (5=80-100%)	5 (5=80-100%)	5 (5=80-100%)
Cc1ccccc1-n1ncn2nc(C(=O)Nc3nnnn3C)c(=O)nc12 [Compound 1.030]	5 (5=80-100%)	4 (4=60-79%)	5 (5=80-100%)	5 (5=80-100%)	5 (5=80-100%)	5 (5=80-100%)	5 (5=80-100%)	4 (4=60-79%)	5 (5=80-100%)	5 (5=80-100%)	5 (5=80-100%)	5 (5=80-100%)
CCCn1nnnc1NC(=O)c1nn2cnn(CCC)c2nc1=O [Compound 1.031]	5 (5=80-100%)	5 (5=80-100%)	5 (5=80-100%)	5 (5=80-100%)	5 (5=80-100%)	4 (4=60-79%)	5 (5=80-100%)	5 (5=80-100%)	5 (5=80-100%)	5 (5=80-100%)	5 (5=80-100%)	5 (5=80-100%)
CCn1nnnc1NC(=O)c1nn2cnn(-c3cccc(Cl)c3)c2nc1=O [Compound 1.033]	5 (5=80-100%)	5 (5=80-100%)	5 (5=80-100%)	5 (5=80-100%)	5 (5=80-100%)	4 (4=60-79%)	5 (5=80-100%)	4 (4=60-79%)	5 (5=80-100%)	5 (5=80-100%)	2 (2=20-39%)	5 (5=80-100%)
CCn1nnnc1NC(=O)c1nn2cnn(-c3ccc(OC)cc3)c2nc1=O [Compound 1.034]	5 (5=80-100%)	4 (4=60-79%)	5 (5=80-100%)	5 (5=80-100%)	5 (5=80-100%)	5 (5=80-100%)	5 (5=80-100%)	4 (4=60-79%)	5 (5=80-100%)	5 (5=80-100%)	3 (3=40-59%)	5 (5=80-100%)
CCCn1nnnc1NC(=O)c1nn2cnn(-c3ccc(OC)cc3)c2nc1=O [Compound 1.035]	5 (5=80-100%)	5 (5=80-100%)	4 (4=60-79%)	4 (4=60-79%)	5 (5=80-100%)	5 (5=80-100%)	5 (5=80-100%)	5 (5=80-100%)	5 (5=80-100%)	5 (5=80-100%)	5 (5=80-100%)	5 (5=80-100%)
CCCn1nnnc1NC(=O)c1nn2cnn(-c3cccc(OC)c3)c2nc1=O [Compound 1.036]	5 (5=80-100%)	5 (5=80-100%)	5 (5=80-100%)	5 (5=80-100%)	4 (4=60-79%)	5 (5=80-100%)	5 (5=80-100%)	5 (5=80-100%)	5 (5=80-100%)	5 (5=80-100%)	4 (4=60-79%)	5 (5=80-100%)
CCn1nnnc1NC(=O)c1nn2cnn(-c3ccc(F)cc3)c2nc1=O [Compound 1.037]	4 (4=60-79%)	4 (4=60-79%)	5 (5=80-100%)	5 (5=80-100%)	5 (5=80-100%)	5 (5=80-100%)	5 (5=80-100%)	4 (4=60-79%)	5 (5=80-100%)	5 (5=80-100%)	5 (5=80-100%)	5 (5=80-100%)
